Data published in ChEMBL document CHEMBL5046249, “Synthesis, biological evaluation and cellular localization study of fluorescent derivatives of Jiyuan Oridonin A” (Eur J Med Chem, 2022).

Assays:
Type in all cases: functional, cell-based
MGC-803 = experiment: Antiproliferative activity against human MGC-803 cells assessed as inhibition of cell growth measured after 72 hrs by SRB assay; details: MGC-803, 72 h
SW1990 = experiment: Antiproliferative activity against human SW1990 cells assessed as inhibition of cell growth measured after 72 hrs by SRB assay; details: SW1990, 72 h
PC-3 = experiment: Antiproliferative activity against human PC-3 cells assessed as inhibition of cell growth measured after 72 hrs by SRB assay; details: PC-3, 72 h
TE-1 = experiment: Antiproliferative activity against human TE-1 cells assessed as inhibition of cell growth measured after 72 hrs by SRB assay; details: TE-1, 72 h
HGC-27 = experiment: Antiproliferative activity against human HGC-27 cells assessed as inhibition of cell growth measured after 72 hrs by SRB assay; details: HGC-27, 72 h

IC50 (MGC-803) [nM] | IC50 (SW1990) [nM] | IC50 (PC-3) [nM] | Compound | IC50 (TE-1) [nM] | IC50 (HGC-27) [nM]
3830 | 2390 | 1410 | C=C1C(=O)[C@]23[C@H](O)[C@H]1C[C@H](O)[C@H]2[C@]12CCCC(C)(C)[C@H]1C[C@H]3O[C@H]2OCCCc1cn(CCOCCN2C(=O)c3cccc4c(N5CCCCC5)ccc(c34)C2=O)nn1 | 2260 | 2160
1200 | 3310 | 770 | C=C1C(=O)[C@]23[C@H](O)[C@H]1C[C@H](O)[C@H]2[C@]12CCCC(C)(C)[C@H]1C[C@H]3O[C@H]2OCCCCc1cn(CCCN2C(=O)c3cccc4c(N5CCCCC5)ccc(c34)C2=O)nn1 | 2640 | 6130
910 | 1200 | 740 | C=C1C(=O)[C@]23[C@H](O)[C@H]1C[C@H](O)[C@H]2[C@]12CCCC(C)(C)[C@H]1C[C@H]3O[C@H]2OCCCc1cn(CCCCCCN2C(=O)c3cccc4c(N5CCCCC5)ccc(c34)C2=O)nn1 | 2970 | 3320
3070 | 2690 | 1270 | C=C1C(=O)[C@]23[C@H](O)[C@H]1C[C@H](O)[C@H]2[C@]12CCCC(C)(C)[C@H]1C[C@H]3O[C@H]2OCCCCc1cn(CCCCCN2C(=O)c3cccc4c(N5CCCCC5)ccc(c34)C2=O)nn1 | 6380 | 1950
1530 | 1380 | 1670 | C=C1C(=O)[C@]23[C@H](O)[C@H]1C[C@H](O)[C@H]2[C@]12CCCC(C)(C)[C@H]1C[C@H]3O[C@H]2OCCCc1cn(CCCCCN2C(=O)c3cccc4c(N5CCCCC5)ccc(c34)C2=O)nn1 | 3940 | 3310
3250 | 2880 | 1600 | C=C1C(=O)[C@]23[C@H](O)[C@H]1C[C@H](O)[C@H]2[C@]12CCCC(C)(C)[C@H]1C[C@H]3O[C@H]2OCCCCCCc1cn(CCN2C(=O)c3cccc4c(N5CCCCC5)ccc(c34)C2=O)nn1 | 4660 | 3740
2780 | 3360 | 870 | C=C1C(=O)[C@]23[C@H](O)[C@H]1C[C@H](O)[C@H]2[C@]12CCCC(C)(C)[C@H]1C[C@H]3O[C@H]2OCCCCCc1cn(CCOCCN2C(=O)c3cccc4c(N5CCCCC5)ccc(c34)C2=O)nn1 | 2370 | 1640
2180 | 1640 | 810 | C=C1C(=O)[C@]23[C@H](O)[C@H]1C[C@H](O)[C@H]2[C@]12CCCC(C)(C)[C@H]1C[C@H]3O[C@H]2OCCCc1cn(CCOCCOCCOCCN2C(=O)c3cccc4c(N5CCCCC5)ccc(c34)C2=O)nn1 | 1440 | 3110
2110 | 2870 | 2200 | C=C1C(=O)[C@]23[C@H](O)[C@H]1C[C@H](O)[C@H]2[C@]12CCCC(C)(C)[C@H]1C[C@H]3O[C@H]2OCCCCc1cn(CCCCCCN2C(=O)c3cccc4c(N5CCCCC5)ccc(c34)C2=O)nn1 | 4330 | 2090
> 32000 | > 32000 | > 32000 | [N-]=[N+]=NCCOCCOCCN1C(=O)c2cccc3c(N4CCCCC4)ccc(c23)C1=O | > 32000 | > 32000
1510 | 2440 | 500 | C=C1C(=O)[C@]23[C@H](O)[C@H]1C[C@H](O)[C@H]2[C@]12CCCC(C)(C)[C@H]1C[C@H]3O[C@H]2OCCc1cn(CCCCCN2C(=O)c3cccc4c(N5CCCCC5)ccc(c34)C2=O)nn1 | 3050 | 2450
2720 | 4630 | 2470 | C=C1C(=O)[C@]23[C@H](O)[C@H]1C[C@H](O)[C@H]2[C@]12CCCC(C)(C)[C@H]1C[C@H]3O[C@H]2OCCCCCc1cn(CCN2C(=O)c3cccc4c(N5CCCCC5)ccc(c34)C2=O)nn1 | 5360 | 4410
> 32000 | > 32000 | > 32000 | [N-]=[N+]=NCCOCCOCCOCCN1C(=O)c2cccc3c(N4CCCCC4)ccc(c23)C1=O | > 32000 | > 32000
5880 | 5020 | 990 | C=C1C(=O)[C@]23[C@H](O)[C@H]1C[C@H](O)[C@H]2[C@]12CCCC(C)(C)[C@H]1C[C@H]3O[C@H]2OCCCCCc1cn(CCCCCCN2C(=O)c3cccc4c(N5CCCCC5)ccc(c34)C2=O)nn1 | 10100 | 2170
6360 | 4230 | 4250 | C#CCCO[C@@H]1O[C@@H]2C[C@@H]3C(C)(C)CCC[C@]13[C@@H]1[C@@H](O)C[C@H]3C(=C)C(=O)[C@@]21[C@@H]3O | 7390 | 6480
> 32000 | > 32000 | > 32000 | [N-]=[N+]=NCCCCN1C(=O)c2cccc3c(N4CCCCC4)ccc(c23)C1=O | > 32000 | > 32000
> 32000 | > 32000 | > 32000 | [N-]=[N+]=NCCOCCN1C(=O)c2cccc3c(N4CCCCC4)ccc(c23)C1=O | > 32000 | > 32000
> 32000 | > 32000 | > 32000 | [N-]=[N+]=NCCCN1C(=O)c2cccc3c(N4CCCCC4)ccc(c23)C1=O | > 32000 | > 32000
3650 | 4880 | 3000 | C=C1C(=O)[C@]23[C@H](O)[C@H]1C[C@H](O)[C@H]2[C@]12CCCC(C)(C)[C@H]1C[C@H]3O[C@H]2OCCCCCCc1cn(CCCCCCN2C(=O)c3cccc4c(N5CCCCC5)ccc(c34)C2=O)nn1 | 4050 | 5880
> 32000 | > 32000 | > 32000 | [N-]=[N+]=NCCCCCN1C(=O)c2cccc3c(N4CCCCC4)ccc(c23)C1=O | > 32000 | > 32000
2930 | 2160 | 1150 | C=C1C(=O)[C@]23[C@H](O)[C@H]1C[C@H](O)[C@H]2[C@]12CCCC(C)(C)[C@H]1C[C@H]3O[C@H]2OCCCCc1cn(CCOCCOCCN2C(=O)c3cccc4c(N5CCCCC5)ccc(c34)C2=O)nn1 | 2260 | 1750
2430 | 3650 | 2490 | C=C1C(=O)[C@]23[C@H](O)[C@H]1C[C@H](O)[C@H]2[C@]12CCCC(C)(C)[C@H]1C[C@H]3O[C@H]2OCCCCCc1cn(CCCN2C(=O)c3cccc4c(N5CCCCC5)ccc(c34)C2=O)nn1 | 4620 | 3260
3150 | 2910 | 2450 | C#CCCCCCO[C@@H]1O[C@@H]2C[C@@H]3C(C)(C)CCC[C@]13[C@@H]1[C@@H](O)C[C@H]3C(=C)C(=O)[C@@]21[C@@H]3O | 2440 | 2890
1210 | 1370 | 1440 | C=C1C(=O)[C@]23[C@H](O)[C@H]1C[C@H](O)[C@H]2[C@]12CCCC(C)(C)[C@H]1C[C@H]3O[C@H]2OCCCCc1cn(CCN2C(=O)c3cccc4c(N5CCCCC5)ccc(c34)C2=O)nn1 | 2250 | 6230
1270 | 870 | 1240 | C=C1C(=O)[C@]23[C@H](O)[C@H]1C[C@H](O)[C@H]2[C@]12CCCC(C)(C)[C@H]1C[C@H]3O[C@H]2OCCCc1cn(CCCCN2C(=O)c3cccc4c(N5CCCCC5)ccc(c34)C2=O)nn1 | 2080 | 2240
1970 | 3260 | 2880 | C#CCCCCCCO[C@@H]1O[C@@H]2C[C@@H]3C(C)(C)CCC[C@]13[C@@H]1[C@@H](O)C[C@H]3C(=C)C(=O)[C@@]21[C@@H]3O | 3180 | 3010
6060 | 3190 | 2380 | C=C1C(=O)[C@]23[C@H](O)[C@H]1C[C@H](O)[C@H]2[C@]12CCCC(C)(C)[C@H]1C[C@H]3O[C@H]2OCCCCCCc1cn(CCCN2C(=O)c3cccc4c(N5CCCCC5)ccc(c34)C2=O)nn1 | 3670 | 2480
2130 | 1180 | 990 | C=C1C(=O)[C@]23[C@H](O)[C@H]1C[C@H](O)[C@H]2[C@]12CCCC(C)(C)[C@H]1C[C@H]3O[C@H]2OCCc1cn(CCOCCN2C(=O)c3cccc4c(N5CCCCC5)ccc(c34)C2=O)nn1 | 1310 | 4140
3310 | 2090 | 970 | C=C1C(=O)[C@]23[C@H](O)[C@H]1C[C@H](O)[C@H]2[C@]12CCCC(C)(C)[C@H]1C[C@H]3O[C@H]2OCCc1cn(CCOCCOCCN2C(=O)c3cccc4c(N5CCCCC5)ccc(c34)C2=O)nn1 | 1830 | 3540
1930 | 1780 | 1490 | C=C1C(=O)[C@]23[C@H](O)[C@H]1C[C@H](O)[C@H]2[C@]12CCCC(C)(C)[C@H]1C[C@H]3O[C@H]2OCCCCCCc1cn(CCOCCN2C(=O)c3cccc4c(N5CCCCC5)ccc(c34)C2=O)nn1 | 1530 | 1170
